{"source": "patent US11801307B2", "about": "“Antibody-polymer-drug conjugates” (priority 2016, dated 2023)", "key": {"low-grade NHL": {"system": "low-grade NHL", "conditions": "disease progression or relapse after prior RTX; cited from earlier work"}, "[1]": {"system": "Ramos B-cell lymphoma tumors", "conditions": "i.v., 4 doses at 3-day intervals, 20 mg/kg RTX or equivalent (EPI 1.5 mg/kg)", "experimental": "Ramos cells (5×10^6) in 200 μl of PBS were subcutaneously inoculated in the right flank of 7- to 9-wk-old male NOD SCID mice. Tumor size was measured with a caliper, and tumor volume was calculated according to the formula: Tumor volume (mm^3)=½×length×[…], where the length (mm) is the longest and the width (mm) is the shortest dimension of the tumor. When the average tumor size reached 150±50 mm^3, treatment was initiated (n=4-5). […] Body weight variation was computed by the equation: variation=(WDayn−WDay0)/WDay0×100%. […] Saline was used as non-treated control. […] The data are presented as mean±SD (n=4-5).\nNOD SCID mice were subcutaneously implanted with Ramos cells (5×10^6 cells/200 μl saline) into the right flank. […] Saline was injected as control. […] Mice were treated with 4 doses at 3-day intervals.\nIn addition, body weight of the mice was closely recorded during and after treatment. […] Four-doses were administered on days 11, 14, 17 and 20."}, "[2]": {"test": "Biodistribution of 125I-labeled conjugates in mice bearing s.c. Ramos tumors", "type": "in vivo, male NOD SCID mice", "conditions": "72 h after intravenous injection", "experimental": "For biodistribution study, 7-9 week-old male NOD SCID mice bearing s.c. Ramos tumors received intravenous injection of ^125I labeled RTX, RTX-P-EPI, or IgG-P-EPI (0.1 mg, 20 μCi per mouse). At 72 and 96 h after administration, the mice were sacrificed. Various tissues (heart, liver, spleen, lung, kidney, stomach, intestine, muscle, bone, brain and tumor) were harvested, weighed, and counted for radioactivity with Gamma Counter (Packard). Uptake of the conjugate was calculated as the percentage of the injected dose per gram of tissue (% ID/g). Data are presented as mean±standard deviation (n=3).\nThe biodistribution of RTX, RTX-P-EPI and IgG-P-EPI labeled by ^125I in male NOD SCID mice bearing s.c. xenograft tumor model was also compared."}, "Raji cells": {"system": "Raji cells", "test": "Apoptosis induction in Raji cells, Annexin V/PI staining", "type": "cell-based, human", "conditions": "RTX alone", "experimental": "Incubation time was 48 h.\nPercentage of apoptotic cells was quantified by flow cytometry. All data are presented as mean±SD (n=3).\nThis raises the likelihood that this system will be efficient in the treatment of RTX-resistant disease."}, "[3]": {"test": "Blood pharmacokinetics of 125I-labeled conjugates", "type": "in vivo, male NOD SCID mice", "conditions": "i.v. 3.5 mg/kg single dose", "experimental": "The conjugates were radioiodinated by the Iodogen method as previously described (Liu et al., 2009). 7-9 week-old healthy male NOD/SCID mice (n=3) were intravenously injected with ^125I labeled RTX, RTX-P-EPI or IgG-P-EPI conjugates (0.1 mg, 20 μCi per mouse), respectively. At predetermined intervals, blood samples (10 μl) were taken from the tail vein, and the radioactivity of each sample was measured with Gamma Counter (Packard).\nThe pharmacokinetic properties of ^125I labeled RTX, RTX-P-EPI and IgG-P-EPI were evaluated in male NOD SCID mice. Antibody was radiolabeled by ^125I and i.v. injected at 3.5 mg/kg (based on antibody for RTX, RTX-P-EPI, and IgG-P-EPI) single dose."}, "Ramos cells": {"system": "Ramos cells", "test": "In vitro cytotoxicity toward Ramos cells, CCK-8 assay", "type": "cell-based, human", "conditions": "48 h", "experimental": "The cytotoxicity of antibody and antibody-polymer-drug conjugates against Ramos cells was measured by CCK-8 assay (Dojindo). The cells were seeded in 96-well plates at the density of 10,000 cells (200 μl) per well in RMPI-1640 media containing 10% FBS. After 24 h, RTX, RTX-EPI RTX-P-EPI, mixture of RTX with P-EPI and IgG-P-EPI (0.3 mg/ml×15 μl for antibody) in medium was added and incubated at 37° C. for 48 h. The number of viable cells was estimated using CCK-8 kit according to the manufacturer's protocol. In brief, 50 μl 5× diluted CCK-8 solution was added and incubated at 37° C., 5% CO2 for 4 h, the absorbance was measured using a microplate reader at 450 nm (630 nm as reference). Untreated control cells were set as 100% viable.\nThe cytotoxicity of RTX-P-EPI against Ramos cells was first evaluated at the concentration of 0.15 μM (related to RTX). Unconjugated RTX, non-specific conjugate IgG-P-EPI and directly conjugated with free drug (RTX-EPI) were used as controls. The Ramos cells were incubated with the samples for 48 h and evaluated by CCK-8 assay (FIG. 6).\n10^4 Ramos cells were seeded in each well of 96-well plates in 200 μl RPMI-1640 media containing 10% FBS. Different samples (0.3 mg/ml×15 μl) were added and incubated at 37° C. in a humidified atmosphere of 5% CO2 (v/v). After 48 h, the number of viable cells was estimated using CCK-8 kit at 450 nm (630 nm as reference). […]"}, "CD20": {"target": "T1, CD20 (Homo sapiens, UniProt P11836)", "T1 construct": "host or cells: Ramos Burkitt's lymphoma cells", "T1 sequence (P11836 1-297)": "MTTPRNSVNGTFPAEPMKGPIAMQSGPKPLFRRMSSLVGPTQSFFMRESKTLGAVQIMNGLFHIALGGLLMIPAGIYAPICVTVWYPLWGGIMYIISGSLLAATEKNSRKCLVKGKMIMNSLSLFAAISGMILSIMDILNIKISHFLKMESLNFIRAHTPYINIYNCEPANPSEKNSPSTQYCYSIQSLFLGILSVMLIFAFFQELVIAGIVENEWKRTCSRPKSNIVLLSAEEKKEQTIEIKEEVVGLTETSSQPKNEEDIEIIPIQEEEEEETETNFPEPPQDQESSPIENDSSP", "test": "RTX-Cy5 binding on the surface of Ramos cells, with and without RTX pre-blocking", "experimental": "Non-treated, cells in culture medium; RTX-Cy5, Ramos cells (2×10^5) were treated with 1 μg RTX-Cy5 at 4° C. for 30 min; RTX Blocked+RTX-Cy5, after pre-blocking by 10 μg RTX at 4° C. for 30 min, 1 μg RTX-Cy5 was added and incubated at 4° C. for 30 min. The cells were analyzed by flow cytometry. Data are reported as MFI, mean fluorescence intensity.\nTo ensure CD-20 antigen expression on the surface of the Ramos cells used, the Ramos cells were exposed to RTX labeled with Cy5 (RTX-Cy5). […] This confirmed the expression of CD20 on the surface of the Ramos cells, and their specific binding affinity to RTX."}, "[4]": {"system": "A2780 human ovarian carcinoma xenografts", "conditions": "5 mg/kg EPI equivalent, day 20, s.c. model; cited from earlier work"}, "[5]": {"conditions": "free drug; cited from earlier work"}}, "note": "Entries after “also recorded” stand apart in the source; their conditions may differ."}
{"compound": "Rituximab [RTX, reference compound]", "values": [{"measurement": "patients responding to RTX re-treatment", "setting": "low-grade NHL", "value": 40, "unit": "%"}, {"measurement": "antitumor effect (in words)", "setting": "[1]", "value": "marginal effects"}, {"measurement": "level in the tumor", "setting": "[2]", "value": 0.71, "unit": "% ID/g tissue"}, {"measurement": "change of apoptosis level on increase of antibody concentration from 0.2 μM to 2 μM", "setting": "Raji cells", "value": "did not significantly enhance the apoptosis level; also recorded: did not increase"}, {"measurement": "AUC (total area under the blood concentration versus time curve)", "setting": "[3]", "value": "716.46 ± 66.64", "unit": "% ID h/mL"}, {"measurement": "cytotoxicity against Ramos cells (in words)", "setting": "Ramos cells; 0.15 μM", "value": "nearly undetectable"}]}
{"compound": "RTX-Cy5", "values": [{"measurement": "Cy5 signal of Ramos cells incubated with RTX-Cy5", "setting": "CD20; 1 μg RTX-Cy5, 4° C., 30 min", "value": "high Cy5 signal"}, {"measurement": "Cy5 signal after CD20 receptors were blocked with over-saturation dose of RTX", "setting": "CD20; pre-blocking by 10 μg RTX, then 1 μg RTX-Cy5", "value": "no Cy5 signal detectable"}]}
{"compound": "RTX-EPI: control conjugate in which EPI was directly attached to RTX via maleimide, EPI/RTX 3.1", "values": [{"measurement": "antitumor effect (in words)", "setting": "[1]", "value": "marginal effects"}, {"measurement": "kill of Ramos cells", "setting": "Ramos cells; 0.15 μM (related to RTX)", "value": 18, "unit": "%"}]}
{"compound": "COc1cccc2c1C(=O)c1c(O)c3c(c(O)c1C2=O)C[C@@](O)(C(=O)CO)C[C@@H]3O[C@H]1C[C@H](N)[C@@H](O)[C@H](C)O1", "note": "[EPI, epirubicin]", "values": [{"measurement": "tumor size relative to baseline", "setting": "[4]", "value": "1772±840 % of the baseline"}, {"measurement": "terminal half-life", "setting": "[5]", "value": "9 to 20", "unit": "min"}]}
